Reference: BigSolDB 2.1

Cl.N/N=C(\N)NN
Conditions	solubility (mole fraction)
in THF, 273.15 K	1.96e-05
in THF, 278.15 K	2.74e-05
in THF, 283.15 K	3.7e-05
in THF, 288.15 K	5.17e-05
in THF, 293.15 K	6.85e-05
in THF, 298.15 K	9.12e-05
in THF, 303.15 K	0.000119
in THF, 308.15 K	0.000154
in THF, 313.15 K	0.000209
in THF, 318.15 K	0.000265
in THF, 323.15 K	0.000333
in acetonitrile, 273.15 K	7.35e-06
in acetonitrile, 278.15 K	1.19e-05
in acetonitrile, 283.15 K	1.4e-05
in acetonitrile, 288.15 K	2.09e-05
in acetonitrile, 293.15 K	2.72e-05
in acetonitrile, 298.15 K	3.41e-05
in acetonitrile, 303.15 K	5.02e-05
in acetonitrile, 308.15 K	6.91e-05
in acetonitrile, 313.15 K	8.3e-05
in acetonitrile, 318.15 K	9.96e-05
in acetonitrile, 323.15 K	0.000142
in ethanol, 273.15 K	0.000112
in ethanol, 278.15 K	0.000156
in ethanol, 283.15 K	0.000207
in ethanol, 288.15 K	0.0003
in ethanol, 293.15 K	0.000373
in ethanol, 298.15 K	0.00054
in ethanol, 303.15 K	0.000666
in ethanol, 308.15 K	0.000904
in ethanol, 313.15 K	0.00119
in ethanol, 318.15 K	0.00158
in ethanol, 323.15 K	0.002
in ethyl acetate, 273.15 K	1.56e-05
in ethyl acetate, 278.15 K	2.2e-05
in ethyl acetate, 283.15 K	3.03e-05
in ethyl acetate, 288.15 K	4.16e-05
in ethyl acetate, 293.15 K	5.57e-05
in ethyl acetate, 298.15 K	7.51e-05
in ethyl acetate, 303.15 K	0.000101
in ethyl acetate, 308.15 K	0.00013
in ethyl acetate, 313.15 K	0.000169
in ethyl acetate, 318.15 K	0.000217
in ethyl acetate, 323.15 K	0.000281
in isobutanol, 273.15 K	2.22e-05
in isobutanol, 278.15 K	3.04e-05
in isobutanol, 283.15 K	4.2e-05
in isobutanol, 288.15 K	5.88e-05
in isobutanol, 293.15 K	7.77e-05
in isobutanol, 298.15 K	0.000105
in isobutanol, 303.15 K	0.000134
in isobutanol, 308.15 K	0.000177
in isobutanol, 313.15 K	0.000233
in isobutanol, 318.15 K	0.000301
in isobutanol, 323.15 K	0.000389
in isopropanol, 273.15 K	2.41e-05
in isopropanol, 278.15 K	3.39e-05
in isopropanol, 283.15 K	4.68e-05
in isopropanol, 288.15 K	6.35e-05
in isopropanol, 293.15 K	8.43e-05
in isopropanol, 298.15 K	0.000112
in isopropanol, 303.15 K	0.000148
in isopropanol, 308.15 K	0.000192
in isopropanol, 313.15 K	0.000248
in isopropanol, 318.15 K	0.000326
in isopropanol, 323.15 K	0.000417
in methanol, 273.15 K	0.00218
in methanol, 278.15 K	0.00272
in methanol, 283.15 K	0.00338
in methanol, 288.15 K	0.00436
in methanol, 293.15 K	0.00522
in methanol, 298.15 K	0.00664
in methanol, 303.15 K	0.00802
in methanol, 308.15 K	0.00971
in methanol, 313.15 K	0.0118
in methanol, 318.15 K	0.0144
in methanol, 323.15 K	0.0175
in n-butanol, 273.15 K	3.27e-05
in n-butanol, 278.15 K	4.64e-05
in n-butanol, 283.15 K	6.17e-05
in n-butanol, 288.15 K	8.36e-05
in n-butanol, 293.15 K	0.000111
in n-butanol, 298.15 K	0.000147
in n-butanol, 303.15 K	0.000197
in n-butanol, 308.15 K	0.000259
in n-butanol, 313.15 K	0.000345
in n-butanol, 318.15 K	0.000432
in n-butanol, 323.15 K	0.000549
in n-heptane, 273.15 K	1.74e-05
in n-heptane, 278.15 K	2.52e-05
in n-heptane, 283.15 K	3.41e-05
in n-heptane, 288.15 K	4.7e-05
in n-heptane, 293.15 K	6.36e-05
in n-heptane, 298.15 K	8.63e-05
in n-heptane, 303.15 K	0.000119
in n-heptane, 308.15 K	0.000153
in n-heptane, 313.15 K	0.000204
in n-heptane, 318.15 K	0.000264
in n-heptane, 323.15 K	0.000334
in n-hexane, 273.15 K	1.77e-05
in n-hexane, 278.15 K	2.5e-05
in n-hexane, 283.15 K	3.47e-05
in n-hexane, 288.15 K	4.69e-05
in n-hexane, 293.15 K	6.58e-05
in n-hexane, 298.15 K	8.84e-05
in n-hexane, 303.15 K	0.000115
in n-hexane, 308.15 K	0.000154
in n-hexane, 313.15 K	0.000205
in n-hexane, 318.15 K	0.000261
in n-hexane, 323.15 K	0.00035
in n-propanol, 273.15 K	4.25e-05
in n-propanol, 278.15 K	5.9e-05
in n-propanol, 283.15 K	7.94e-05
in n-propanol, 288.15 K	0.00011
in n-propanol, 293.15 K	0.000145
in n-propanol, 298.15 K	0.000189
in n-propanol, 303.15 K	0.000253
in n-propanol, 308.15 K	0.000319
in n-propanol, 313.15 K	0.000412
in n-propanol, 318.15 K	0.000539
in n-propanol, 323.15 K	0.000675
in water, 273.15 K	0.0395
in water, 278.15 K	0.0481
in water, 283.15 K	0.0546
in water, 288.15 K	0.0664
in water, 293.15 K	0.0778
in water, 298.15 K	0.0879
in water, 303.15 K	0.101
in water, 308.15 K	0.112
in water, 313.15 K	0.127
in water, 318.15 K	0.145
in water, 323.15 K	0.161
